Measured values as given in patent EP3755703B1, “N-(PHENYL)-2-(PHENYL)PYRIMIDINE-4-CARBOXAMIDE DERIVATIVES AND RELATED COMPOUNDS AS HPK1 INHIBITORS FOR TREATING CANCER” (Incyte Corporation, priority 2018, dated 2019).

Each compound was assayed against T1, HPK1 (Homo sapiens, UniProt Q92918) (assay: HPK1 Kinase Binding Assay). Conditions: LanthaScreen tracer 222, one hour incubation at 25 °C.
T1 construct: purchased SignalChem M23-11G
T1 sequence (Q92918 1-346 limits assumed): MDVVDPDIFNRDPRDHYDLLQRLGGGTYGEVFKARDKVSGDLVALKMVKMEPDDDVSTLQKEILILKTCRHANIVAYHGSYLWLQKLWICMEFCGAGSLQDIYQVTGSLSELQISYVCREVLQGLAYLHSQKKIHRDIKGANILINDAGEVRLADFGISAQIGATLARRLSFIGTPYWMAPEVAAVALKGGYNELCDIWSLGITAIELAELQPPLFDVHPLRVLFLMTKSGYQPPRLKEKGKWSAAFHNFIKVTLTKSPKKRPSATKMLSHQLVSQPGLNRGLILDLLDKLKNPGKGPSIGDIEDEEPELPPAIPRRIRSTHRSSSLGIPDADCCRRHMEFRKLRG
Description: A stock solution of 1 mM test compound was prepared in DMSO. The compound plate was prepared by 3-fold and 11-point serial dilutions. 0.1 µL of the compound in DMSO was transferred from the compound plate to the white 384 well polystyrene plates. The assay buffer contained 50 mM HEPES, pH 7.5, 0.01% Tween-20, 5 mM MgCl2, 0.01% BSA, and 5 mM DTT. 5 µL of 4 nM active HPK1 (SignalChem M23-11G) prepared in the buffer was added to the plate. The enzyme concentration given was based on the given stock concentration reported by the vender. […] After one hour incubation at 25 °C, the plates were read on a PHERAstar FS plate reader (BMG Labtech). Ki values were determined.

SMILES	Ki [nM]
COc1cccc(F)c1-c1nccc(C(=O)Nc2cc(F)c(CO)cc2N2C[C@@H]3C[C@H]2CN3)n1 [Example 17, N-(2-((1S,4S)-2,5-Diazabicyclo[2.2.1]heptan-2-yl)-5-fluoro-4-(hydroxymethyl)phenyl)-2-(2-fluoro-6-methoxyphenyl)pyrimidine-4-carboxamide]	< 100
COc1cccc(F)c1-c1nccc(C(=O)Nc2cc(F)c(-c3ccc(CO)nc3)cc2N2C[C@@H]3C[C@H]2CN3)n1 [Example 20, N-(2-((1S,4S)-2,5-Diazabicyclo[2.2.1]heptan-2-yl)-5-fluoro-4-(6-(hydroxymethyl)pyridin-3-yl)phenyl)-2-(2-fluoro-6-methoxyphenyl)pyrimidine-4-carboxamide]	< 100
COc1cccc(F)c1-c1nccc(C(=O)Nc2ccc(-c3c(C)nn(C)c3C)cc2N2C[C@@H]3C[C@H]2CN3)n1 [Example 27, N-(2-((1S,4S)-2,5-Diazabicyclo[2.2.1]heptan-2-yl)-4-(1,3,5-trimethyl-1H-pyrazol-4-yl)phenyl)-2-(2-fluoro-6-methoxyphenyl)pyrimidine-4-carboxamide]	< 100
COc1cccc(F)c1-c1nccc(C(=O)Nc2cc(F)c(CN3CCOCC3)cc2N2C[C@@H]3C[C@H]2CN3)n1 [Example 30, N-(2-((1S,4S)-2,5-Diazabicyclo[2.2.1]heptan-2-yl)-5-fluoro-4-(morpholinomethyl)phenyl)-2-(2-fluoro-6-methoxyphenyl)pyrimidine-4-carboxamide]	< 100
COc1cccc(F)c1-c1nccc(C(=O)Nc2cc(F)c(CNC3CCC3)cc2N2C[C@@H]3C[C@H]2CN3)n1 [Example 31, N-(2-((1S,4S)-2,5-Diazabicyclo[2.2.1]heptan-2-yl)-4-((cyclobutylamino)methyl)-5-fluorophenyl)-2-(2-fluoro-6-methoxyphenyl)pyrimidine-4-carboxamide]	< 100
CCN1C[C@H]2C[C@@H]1CN2c1ccc(F)cc1NC(=O)c1ccnc(-c2c(F)cccc2OC)n1 [Example 32, N-(2-((1R,4R)-5-Ethyl-2,5-diazabicyclo[2.2.1]heptan-2-yl)-5-fluorophenyl)-2-(2-fluoro-6-methoxyphenyl)pyrimidine-4-carboxamide]	< 100
COc1cccc(F)c1-c1nccc(C(=O)Nc2cc(F)ccc2N2C[C@H]3C[C@@H]2CN3CCO)n1 [Example 33, N-(5-Fluoro-2-((1R,4R)-5-(2-hydroxyethyl)-2,5-diazabicyclo[2.2.1]heptan-2-yl)phenyl)-2-(2-fluoro-6-methoxyphenyl)pyrimidine-4-carboxamide]	< 100
CCCNC(=O)N1C[C@H]2C[C@@H]1CN2c1ccc(F)cc1NC(=O)c1ccnc(-c2c(F)cccc2OC)n1 [Example 34, (1R,4R)-5-(4-Fluoro-2-(2-(2-fluoro-6-methoxyphenyl)pyrimidine-4-carboxamido)phenyl)-N-propyl-2,5-diazabicyclo[2.2.1]heptane-2-carboxamide]	< 100
COc1ccc(N2C[C@H]3C[C@@H]2CN3)c(NC(=O)c2ccnc(-c3c(F)cccc3OC)n2)c1 [Example 35, N-(2-((1R,4R)-2,5-Diazabicyclo[2.2.1]heptan-2-yl)-5-methoxyphenyl)-2-(2-fluoro-6-methoxyphenyl)pyrimidine-4-carboxamide]	< 100
COc1cccc(F)c1-c1nccc(C(=O)Nc2cc(CO)ccc2N2C[C@H]3C[C@@H]2CN3)n1 [Example 36, N-(2-((1R,4R)-2,5-Diazabicyclo[2.2.1]heptan-2-yl)-5-(hydroxymethyl)phenyl)-2-(2-fluoro-6-methoxyphenyl)pyrimidine-4-carboxamide]	< 100
COc1cccc(F)c1-c1nccc(C(=O)Nc2cc(C#N)ccc2N2C[C@H]3C[C@@H]2CN3)n1 [Example 37, N-(2-((1R,4R)-2,5-Diazabicyclo[2.2.1]heptan-2-yl)-5-cyanophenyl)-2-(2-fluoro-6-methoxyphenyl)pyrimidine-4-carboxamide]	100 to 500
COc1cccc(F)c1-c1nccc(C(=O)Nc2ccc(N3CCC3)cc2N2C[C@@H]3C[C@H]2CN3)n1 [Example 38, N-(4-(Azetidin-1-yl)-2-((1S,4S)-2,5-diazabicyclo[2.2.1]heptan-2-yl)phenyl)-2-(2-fluoro-6-methoxyphenyl)pyrimidine-4-carboxamide]	< 100
COC[C@@H]1CCN1c1ccc(NC(=O)c2ccnc(-c3c(F)cccc3OC)n2)c(N2C[C@@H]3C[C@H]2CN3)c1 [Example 39, N-(2-((1S,4S)-2,5-Diazabicyclo[2.2.1]heptan-2-yl)-4-((S)-2-(methoxymethyl)azetidin-1-yl)phenyl)-2-(2-fluoro-6-methoxyphenyl)pyrimidine-4-carboxamide]	< 100
COc1cccc(F)c1-c1nccc(C(=O)Nc2ccc(-c3ccncc3C#N)c(F)c2N2C[C@@H]3C[C@H]2CN3)n1 [Example 40, N-(2-((1S,4S)-2,5-Diazabicyclo[2.2.1]heptan-2-yl)-4-(3-cyanopyridin-4-yl)-3-fluorophenyl)-2-(2-fluoro-6-methoxyphenyl)pyrimidine-4-carboxamide]	< 100
COc1cccc(F)c1-c1nccc(C(=O)Nc2ccc(-c3ccncc3C#N)cc2N2C[C@@H](N)C[C@H]2CO)n1 [Example 41, N-(2-((2S,4S)-4-Amino-2-(hydroxymethyl)pyrrolidin-1-yl)-4-(3-cyanopyridin-4-yl)phenyl)-2-(2-fluoro-6-methoxyphenyl)pyrimidine-4-carboxamide]	< 100
COc1cnccc1-c1ccc(NC(=O)c2ccnc(-c3c(F)cccc3OC)n2)c(N2C[C@@H](N)C[C@H]2CO)c1 [Example 44, N-(2-((2S,4S)-4-Amino-2-(hydroxymethyl)pyrrolidin-1-yl)-4-(3-methoxypyridin-4-yl)phenyl)-2-(2-fluoro-6-methoxyphenyl)pyrimidine-4-carboxamide]	< 100
COc1cccc(F)c1-c1nccc(C(=O)Nc2ccc(-c3c(F)cccc3C#N)cc2N2C[C@@H](N)C[C@H]2CO)n1 [Example 45, N-(3-((2S,4S)-4-Amino-2-(hydroxymethyl)pyrrolidin-1-yl)-2'-cyano-6'-fluorobiphenyl-4-yl)-2-(2-fluoro-6-methoxyphenyl)pyrimidine-4-carboxamide]	< 100
COc1cccc(F)c1-c1nccc(C(=O)Nc2ccc(C(C)C)cc2N2C[C@@H](N)C[C@H]2CO)n1 [Example 48, N-(2-((2S,4S)-4-Amino-2-(hydroxymethyl)pyrrolidin-1-yl)-4-isopropylphenyl)-2-(2-fluoro-6-methoxyphenyl)pyrimidine-4-carb oxamide]	< 100
COc1cccc(F)c1-c1nccc(C(=O)Nc2ccc(-c3ccncc3C#N)cc2N2C[C@@H](O)C[C@H]2CO)n1 [Example 49, N-(4-(3-Cyanopyridin-4-yl)-2-((2S,4S)-4-hydroxy-2-(hydroxymethyl)pyrrolidin-1-yl)phenyl)-2-(2-fluoro-6-methoxyphenyl)pyrimidine-4-carboxamide]	< 100
COc1cccc(F)c1-c1nccc(C(=O)Nc2ccc(-c3cnccc3C#N)cc2N2C[C@@H](C)NC[C@H]2CO)n1 [Example 50, N-(4-(4-Cyanopyridin-3-yl)-2-((2S,5R)-2-(hydroxymethyl)-5-methylpiperazin-1-yl)phenyl)-2-(2-fluoro-6-methoxyphenyl)pyrimidine-4-carboxamide]	< 100
COc1cccc(F)c1-c1nccc(C(=O)Nc2ccc(-c3cnccc3C#N)cc2N2C[C@H](C)NC[C@H]2CO)n1 [Example 51, N-(4-(4-Cyanopyridin-3-yl)-2-((2S,5S)-2-(hydroxymethyl)-5-methylpiperazin-1-yl)phenyl)-2-(2-fluoro-6-methoxyphenyl)pyrimidine-4-carboxamide]	< 100
COc1cccc(F)c1-c1nccc(C(=O)Nc2ccc(-c3cnccc3C#N)cc2N2CC3(CC3)NC[C@H]2CO)n1 [Example 52, (S)-N-(4-(4-Cyanopyridin-3-yl)-2-(6-(hydroxymethyl)-4,7-diazaspiro[2.5]octan-7-yl)phenyl)-2-(2-fluoro-6-methoxyphenyl)pyrimidine-4-carboxamide]	< 100
COc1cccc(F)c1-c1nccc(C(=O)Nc2ccc(-c3cnccc3C#N)cc2N2C[C@@H](N)C[C@H]2C2(O)CC2)n1 [Example 53, N-(2-((2S,4S)-4-Amino-2-(1-hydroxycyclopropyl)pyrrolidin-1-yl)-4-(4-cyanopyridin-3-yl)phenyl)-2-(2-fluoro-6-methoxyphenyl)pyrimidine-4-carboxamide]	< 100
